Test results: patent US8664220B2, “Polycyclic compounds as lysophosphatidic acid receptor antagonists” (Amira Pharmaceuticals, Inc., priority 2009, dated 2014)

Biological target: T1, human LPA1 (Homo sapiens, UniProt Q92633)
T1 construct: the full-length cDNA for human LPA1 was obtained by PCR of the reverse transcription reaction; expressed in transfected cells
Assay: LPA1 calcium flux assay
Format: cell-based
Settings: human LPA1 expressing CHO cells, stimulated with 10 nM LPA; read-out: HLPA1 Ca Flux IC50
Summary of the method: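 CHO cells stably expressing human LPA1, serum-starved overnight and loaded with Calcium 4 dye in HBSS/20 mM Hepes/0.3% fatty-acid-free HSA, 1 h at 37 °C. Compounds pre-incubated 30 min at room temperature, then 10 nM LPA added; intracellular Ca2+ flux measured and IC50 from titration curves.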

T1 sequence (Q92633 whole entry): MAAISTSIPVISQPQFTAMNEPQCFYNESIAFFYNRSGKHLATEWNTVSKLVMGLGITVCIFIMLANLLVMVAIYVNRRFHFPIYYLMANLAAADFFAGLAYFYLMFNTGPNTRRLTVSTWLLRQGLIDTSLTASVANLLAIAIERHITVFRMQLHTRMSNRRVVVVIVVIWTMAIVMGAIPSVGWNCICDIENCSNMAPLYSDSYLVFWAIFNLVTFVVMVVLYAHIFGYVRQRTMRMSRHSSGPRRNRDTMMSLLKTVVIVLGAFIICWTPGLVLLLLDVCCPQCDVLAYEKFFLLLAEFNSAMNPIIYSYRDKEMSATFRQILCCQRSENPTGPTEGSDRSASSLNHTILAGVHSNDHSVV

Structure (SMILES)	IC50 [nM]
Cc1noc(-c2ccc(-c3ccc(C4(C(=O)O)CC4)cc3)cc2)c1Cc1nnc(-c2ccccc2)o1 [Compound 1-8, 1-{4′-[3-Methyl-4-(5-phenyl[1,3,4]oxadiazol-2-ylmethyl)-isoxazol-5-yl]-biphenyl-4-yl}-cyclopropanecarboxylic acid]	< 300
Cc1noc(-c2ccc(-c3ccc(C4(C(=O)O)CC4)cc3)cc2)c1C(O)c1nnc(Cc2ccccc2)o1 (stereo not drawn) [Compound 1-30, 1-(4′-{4-[(5-Benzyl-[1,3,4]oxadiazol-2-yl)-hydroxy-methyl]-3-methyl-isoxazol-5-yl}-biphenyl-4-yl)-cyclopropanecarboxylic acid]	< 300
Cc1noc(-c2ccc(-c3ccc(C4(C(=O)O)CC4)cc3)cc2)c1[C@@H](O)c1cn(Cc2ccccc2Cl)nn1 [Compound 1-63, 1-[4′-(4-{(R)-[1-(2-Chloro-benzyl)-1H-[1,2,3]triazol-4-yl]-hydroxy-methyl}-3-methyl-isoxazol-5-yl)-biphenyl-4-yl]-cyclopropanecarboxylic acid]	< 300
Cc1noc(-c2ccc(-c3ccc(C4(CC(=O)O)CC4)cc3)cc2)c1NC1CCN(Cc2ccccc2)CC1 [Compound 1-37, (1-{4′-[4-(1-Benzyl-piperidin-4-ylamino)-3-methyl-isoxazol-5-yl]-biphenyl-4-yl}-cyclopropyl)-acetic acid]	1000 to 50000
Cc1noc(-c2ccc(-c3ccc(C4(C(=O)O)CC4)cc3)cc2)c1Cn1cc(Cc2ccccc2)nn1 [Compound 1-9, 1-{4′-[4-(4-Benzyl-[1,2,3]triazol-1-ylmethyl)-3-methyl-isoxazol-5-yl]-biphenyl-4-yl}-cyclopropanecarboxylic acid]	< 300
Cc1noc(-c2ccc(-c3ccc(C4(C(=O)O)CC4)cc3)cc2)c1Cc1cn(Cc2ccccc2)nn1 [Compound 1-31, 1-{4′-[4-(1-Benzyl-1H-[1,2,3]triazol-4-ylmethyl)-3-methyl-isoxazol-5-yl]-biphenyl-4-yl}-cyclopropanecarboxylic acid]	< 300
Cc1noc(-c2ccc(-c3ccc(C4(C(=O)O)CC4)cc3)cc2)c1C1CC1C(=O)N(C)[C@H](C)c1ccccc1 (single isomer, unassigned) [Compound 1-26]	300 to 1000
Cc1noc(-c2ccc(-c3ccc(C4(C(=O)O)CC4)cc3)cc2)c1C(O)c1cn(Cc2ccccc2)nn1 (single isomer, unassigned) [Compound 1-40, 1-(4′-{4-[(1-Benzyl-1H-[1,2,3]triazol-4-yl)-hydroxy-methyl]-3-methyl-isoxazol-5-yl}-biphenyl-4-yl)-cyclopropanecarboxylic acid]	< 300
Cc1noc(-c2ccc(-c3ccc(C4(C(=O)O)CC4)cc3)cc2)c1CN1CCCC(c2ccccc2)C1 (stereo not drawn) [Compound 1-18, 1-{4′-[3-Methyl-4-(3-phenyl-piperidin-1-ylmethyl)-isoxazol-5-yl]-biphenyl-4-yl}-cyclopropanecarboxylic acid]	< 300
Cc1noc(-c2ccc(-c3ccc(C4(C(=O)O)CC4)cc3)cc2)c1CNc1nnc(-c2ccccc2)o1 [Compound 1-19, 1-(4′-{3-Methyl-4-[(5-phenyl-[1,3,4]oxadiazol-2-ylamino)-methyl]-isoxazol-5-yl}-biphenyl-4-yl)-cyclopropanecarboxylic acid]	< 300
Cc1noc(-c2ccc(-c3ccc(C4(CC(=O)O)CC4)cc3)cc2)c1C(O)CCCc1ccc(Oc2ccccc2)cc1 (stereo not drawn) [Compound 1-33, [1-(4′-{-4-[1-Hydroxy-4-(4-phenoxy-phenyl)-butyl]-3-methyl-isoxazol-5-yl}-biphenyl-4-yl)-cyclopropyl]-acetic acid]	1000 to 50000
Cc1noc(-c2ccc(-c3ccc(C4(C(=O)O)CC4)cc3)cc2)c1C(O)c1nnc(Cc2ccccc2)o1 (single isomer, unassigned) [Compound 1-35, 1-(4′-{4-[(5-Benzyl-[1,3,4]oxadiazol-2-yl)-hydroxy-methyl]-3-methyl-isoxazol-5-yl}-biphenyl-4-yl)-cyclopropanecarboxylic acid]	< 300
Cc1noc(-c2ccc(-c3ccc(C4(C(=O)O)CC4)cc3)cc2)c1Cn1nc(-c2ccccc2)oc1=N [Compound 1-11, 1-{4′-[4-(2-Imino-5-phenyl-[1,3,4]oxadiazol-3-ylmethyl)-3-methyl-isoxazol-5-yl]-biphenyl-4-yl}-cyclopropanecarboxylic acid]	< 300

Further lines, results first:

IC50 [nM]	Structure (SMILES)
< 300	COc1ccc(-c2cccc(Nc3c(C)noc3-c3ccc(-c4ccc(C5(C(=O)O)CC5)cc4)cc3)n2)cn1 [Compound 1-98, 1-{4′-[4-(6′-Methoxy-[2,3′]bipyridinyl-6-ylamino)-3-methyl-isoxazol-5-yl]-biphenyl-4-yl}-cyclopropanecarboxylic acid]
< 300	Cc1noc(-c2ccc(-c3ccc(C4(C(=O)O)CC4)cc3)cc2)c1Nc1cccc(OC2CCCCC2)n1 [Compound 1-138, 1-{4′-[4-(6-Cyclohexyloxy-pyridin-2-ylamino)-3-methyl-isoxazol-5-yl]-biphenyl-4-yl}-cyclopropanecarboxylic acid]
< 300	Cc1noc(-c2ccc(-c3ccc(C4(C(=O)O)CC4)cc3)cc2)c1Nc1ccnc(-c2ccccc2Cl)c1 [Compound 1-114, 1-(4′-{4-[2-(2-Chloro-phenyl)-pyridin-4-ylamino]-3-methyl-isoxazol-5-yl}-biphenyl-4-yl)-cyclopropanecarboxylic acid]
1000 to 50000	Cc1noc(-c2ccc(-c3ccc(C4(C(=O)O)CC4)cc3)cc2)c1Nc1cccc(-c2nn[nH]n2)n1 [Compound 1-149, 1-(4′-{3-Methyl-4-[6-(2H-tetrazol-5-yl)-pyridin-2-ylamino]-isoxazol-5-yl}-biphenyl-4-yl)-cyclopropanecarboxylic acid]
< 300	COc1ccc(-c2cccc(Nc3c(C)noc3-c3ccc(-c4ccc(C5(C(=O)O)CC5)cc4)cc3)n2)cc1 [Compound 1-92, 1-(4′-{4-[6-(4-Methoxy-phenyl)-pyridin-2-ylamino]-3-methyl-isoxazol-5-yl}-biphenyl-4-yl)-cyclopropanecarboxylic acid]
< 300	Cc1noc(-c2ccc(-c3ccc(C4(C(=O)O)CC4)cc3)cc2)c1Nc1cccc(Oc2ccccc2)c1 [Compound 1-82, 1-{4′-[3-Methyl-4-(3-phenoxy-phenylamino)-isoxazol-5-yl]-biphenyl-4-yl}-cyclopropanecarboxylic acid]
< 300	Cc1noc(-c2ccc(-c3ccc(C4(CC(=O)O)CC4)cc3)cc2)c1Nc1cccc(-c2ccccc2)n1 [Compound 1-134, (1-{4′-[3-Methyl-4-(6-phenyl-pyridin-2-ylamino)-isoxazol-5-yl]-biphenyl-4-yl}-cyclopropyl)-acetic acid]
< 300	Cc1noc(-c2ccc(-c3ccc(C4(C(=O)O)CC4)cc3)cc2)c1Nc1cncc(-c2cccc(Cl)c2)c1 [Compound 1-160, 1-(4′-{4-[5-(3-Chloro-phenyl)-pyridin-3-ylamino]-3-methyl-isoxazol-5-yl}-biphenyl-4-yl)-cyclopropanecarboxylic acid]
< 300	Cc1noc(-c2ccc(-c3ccc(C4(C(=O)O)CC4)cc3)cc2)c1Nc1cccc(-c2cccc(F)c2C)n1 [Compound 1-156, 1-(4′-{4-[6-(3-Fluoro-2-methyl-phenyl)-pyridin-2-ylamino]-3-methyl-isoxazol-5-yl}-biphenyl-4-yl)-cyclopropanecarboxylic acid]
< 300	Cc1noc(-c2ccc(-c3ccc(C4(C(=O)O)CC4)cc3)cc2)c1C(O)c1cn(Cc2ccc(Cl)c(Cl)c2)nn1 (stereo not drawn) [Compound 1-64, 1-[4′-(4-{[1-(3,4-Dichloro-benzyl)-1H-[1,2,3]triazol-4-yl]-hydroxy-methyl}-3-methyl-isoxazol-5-yl)-biphenyl-4-yl]-cyclopropanecarboxylic acid]
< 300	Cc1noc(-c2ccc(-c3ccc(C4(C(=O)O)CC4)cc3)cc2)c1C(O)c1cccc(Cc2ccccc2)n1 (stereo not drawn) [Compound 1-69, 1-(4′-{4-[(6-Benzyl-pyridin-2-yl)-hydroxy-methyl]-3-methyl-isoxazol-5-yl}-biphenyl-4-yl)-cyclopropanecarboxylic acid]
< 300	Cc1noc(-c2ccc(-c3ccc(C4(C(=O)O)CC4)cc3)cc2)c1Nc1cccc(-c2ccccc2C(F)(F)F)n1 [Compound 1-96, 1-(4′-{3-methyl-4-[6-(2-trifluoromethyl-phenyl)-pyridin-2-ylamino]-isoxazol-5-yl}-biphenyl-4-yl)-cyclopropanecarboxylic acid]
< 300	Cc1noc(-c2ccc(-c3ccc(C4(C(=O)NS(C)(=O)=O)CC4)cc3)cc2)c1Nc1nnc(-c2ccccc2)o1 [Compound 3-4, N-(1-{4′-[3-Methyl-4-(5-phenyl-[1,3,4]oxadiazol-2-ylamino)-isoxazol-5-yl]-biphenyl-4-yl}-cyclopropanecarbonyl)-methanesulfonamide]
< 300	Cc1noc(-c2ccc(-c3ccc(C4(C(=O)O)CC4)cc3)cc2)c1Nc1cncc(-c2ccccc2)c1 [Compound 1-107, 1-{4′-[3-Methyl-4-(5-phenyl-pyridin-3-ylamino)-isoxazol-5-yl]-biphenyl-4-yl}-cyclopropanecarboxylic acid]
< 300	Cc1noc(-c2ccc(-c3ccc(C4(C(=O)O)CC4)cc3)cc2)c1Nc1cc(-c2ccccc2)ccn1 [Compound 1-116, 1-{4′-[3-Methyl-4-(4-phenyl-pyridin-2-ylamino)-isoxazol-5-yl]-biphenyl-4-yl}-cyclopropanecarboxylic acid]
< 300	Cc1noc(-c2ccc(-c3ccc(C4(C(=O)O)CC4)cc3)cc2)c1Nc1cccc(-c2cccnc2)c1 [Compound 1-103, 1-{4′-[3-Methyl-4-(3-pyridin-3-yl-phenylamino)-isoxazol-5-yl]-biphenyl-4-yl}-cyclopropanecarboxylic acid]
1000 to 50000	Cc1noc(-c2ccc(-c3ccc(CC(=O)O)cc3)cc2)c1C(O)c1cn(Cc2ccc(Cl)c(Cl)c2)nn1 (stereo not drawn) [Compound 1-65, [4′-(4-{[1-(3,4-Dichloro-benzyl)-1H-[1,2,3]triazol-4-yl]-hydroxy-methyl}-3-methyl-isoxazol-5-yl)-biphenyl-4-yl]-acetic acid]
